Test results from patent US20120165315A1, “[…] PRODRUG SALTS” (priority 2010, published 2012).

Tests used:
[1] = Hygroscopicity of the free base and its salts; type: physicochemical; settings: solid form
Text: (§1) The advantageous properties of salts according to the invention can be seen from the table below:
(§2) The salts were all obtained in good yields.

[2] = Thermal profile / melt event of the free base and its salts; type: physicochemical; settings: solid form
Text: as §1, §2

[3] = Norbury et al. 1983; cited from earlier work
[4] = Balikova et al. 2001; cited from earlier work
[5] = rat model; Lu et al. 2005, Xie et al. 2005; cited from earlier work
[6] = listed as maleic acid addition salt

Compound | Hygroscopic [1] | Good thermal profile with clean melt event [2] | other results
CCC1(c2cccc(OC(=O)Nc3ccc(C(=O)O)cc3)c2)CCCCN(C)C1.O=C(O)/C=C\C(=O)O (stereo not drawn) [Meptazinol PABA Carbamate Maleic Acid Addition Salt] | no | yes | Hygroscopic [1, 6]: not be hygroscopic; Good thermal profile with clean melt event [2, 6]: good thermal profiles with clean melt events
CCC1(c2cccc(OC(=O)Nc3ccc(C(=O)O)cc3)c2)CCCCN(C)C1.O=C(O)CC(=O)O (stereo not drawn) [Meptazinol PABA Carbamate Malonic Acid Addition Salt] | not be hygroscopic and no | yes | Good thermal profile with clean melt event ([2]; listed as malonic acid addition salt): good thermal profiles with clean melt events
CCC1(c2cccc(OC(=O)Nc3ccc(C(=O)O)cc3)c2)CCCCN(C)C1.CS(=O)(=O)O (stereo not drawn) [Meptazinol PABA Carbamate Methanesulphonic Acid Addition Salt] | not be hygroscopic and no | yes | Good thermal profile with clean melt event ([2]; listed as methanesulphonic acid addition salt): good thermal profiles with clean melt events
CCC1(c2cccc(OC(=O)Nc3ccc(C(=O)O)cc3)c2)CCCCN(C)C1.O=P(O)(O)O (stereo not drawn) [Meptazinol PABA Carbamate Phosphoric Acid Addition Salt] | no | no | Hygroscopic ([1]; listed as phosphoric acid addition salt): not be hygroscopic
CCC1(c2cccc(OC(=O)Nc3ccc(C(=O)O)cc3)c2)CCCCN(C)C1.O=S(=O)(O)O (stereo not drawn) [Meptazinol PABA Carbamate Sulphuric Acid Addition Salt] | not be hygroscopic and no | yes | Good thermal profile with clean melt event ([2]; listed as sulphuric acid addition salt): good thermal profiles with clean melt events
CCC1(c2cccc(O)c2)CCCCN(C)C1 (stereo not drawn) [Meptazinol] |  |  | oral bioavailability [3]: < 10%
COc1ccc2c3c1O[C@H]1[C@@H](O)CC[C@H]4[C@@H](C2)N(C)CC[C@@]341 [dihydrocodeine] |  |  | share of an oral dose converted to dihydromorphine [4]: less than 2%
CCC1(c2cccc(OC(=O)Nc3ccc(C(=O)O)cc3)c2)CCCCN(C)C1 (stereo not drawn) [meptazinol p-amino-benzoylcarbamate, Meptazinol para-amino benzoic acid carbamate] | yes | no | Hygroscopic ([1]; listed as meptazinol p-amino-benzoic acid carbamate): very hygroscopic
CCC1(c2cccc(OC(=O)Nc3ccc(C(=O)O)cc3)c2)CCCCN(C)C1.Cl (stereo not drawn) [meptazinol p-amino-benzoylcarbamate•HCl] | yes | no | 
(Z)-3-[2-(propionyloxy)phenyl]-2-propenoic ester |  |  | bioavailability over meptazinol itself [5]: significant increase
